The values below come from paper PMC5493200 (ACS infectious diseases, 2016).

This test relates to drug resistant clinical M. tuberculosis isolates. It is filed as cell-based, Mycobacterium tuberculosis. Conditions: 29 clinical isolates, 18 MDR and 5 XDR. Also noted: unit not given beside the values.

With `CN[C@@H]1[C@H](O)[C@H](NC)[C@H]2O[C@]3(O)[C@H](O[C@@H]2[C@H]1O)O[C@H](C)C[C@H]3NC(=O)Cc1ccc(O)cn1.Cl.Cl.Cl` [Compound 39, 3′-Dihydro-3′-deoxy-3′(R)-(5-hydroxypyridin-2-yl)acetylamino spectinomycin trihydrochloride], the MIC range was 1.56–3.13.

Regarding `Br.Br.Br.CN[C@@H]1[C@H](O)[C@H](NC)[C@H]2O[C@]3(O)[C@H](O[C@@H]2[C@H]1O)O[C@H](C)C[C@H]3NC(=O)Cc1cc(Cl)c(F)cn1` [Compound 49, 3′-Dihydro-3′-deoxy-3′(R)-(4-chloro-5-fluoropyridin-2-yl)acetylamino spectinomycin trihydrobromide], the MIC range was 0.39–1.56.
